Measured values from patent US20260285850A1, “SUBSTITUTED OXAZOLIDINONES AND IMIDAZOLINONES AS HERBICIDES” (FMC CORPORATION, priority 2023, published 2026).

Legend:
Assay type in all cases: in vivo
[1] = test system: palmer (palmer amaranth, palmer pigweed, Amaranthus palmeri); experiment: Test A preemergence soil spray, visual injury rating 0-100; settings: 10 days, 0 = no effect, 100 = complete control
How it was run: (§1)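 Visual injury, scored 0-100 (100 = complete control) against untreated plants, 10 days after greenhouse treatment. Test chemicals in surfactant-containing non-phytotoxic solvent were applied in loam soil and sand, as a preemergence soil spray on seeds or postemergence to plants at the one- to two-leaf stage.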

[2] = test system: soybean (Glycine max); experiment: as above; settings: 10 days, 0 = no effect, 100 = complete control
How it was run: as §1

[3] = test system: ryegrass, Italian (italian ryegrass, Lolium multiflorum); experiment: as above; settings: 10 days, 0 = no effect, 100 = complete control
How it was run: as §1

[4] = test system: kochia (Bassia scoparia); experiment: as above; settings: 10 days, 0 = no effect, 100 = complete control
How it was run: as §1

[5] = test system: blackgrass (Alopecurus myosuroides); experiment: as above; settings: 10 days, 0 = no effect, 100 = complete control
How it was run: as §1

[6] = test system: barnyardgrass (Echinochloa crus-galli); experiment: as above; settings: 10 days, 0 = no effect, 100 = complete control
How it was run: as §1

[7] = test system: green foxtail (Setaria viridis); experiment: as above; settings: 10 days, 0 = no effect, 100 = complete control
How it was run: as §1

[8] = test system: wheat (Triticum aestivum); experiment: as above; settings: 10 days, 0 = no effect, 100 = complete control
How it was run: as §1

[9] = test system: ragweed (common ragweed, Ambrosia artemisiifolia); experiment: as above; settings: 10 days, 0 = no effect, 100 = complete control
How it was run: as §1

[10] = test system: oat, wild (wild oat, Avena fatua); experiment: as above; settings: 10 days, 0 = no effect, 100 = complete control
How it was run: as §1

[11] = test system: corn (Zea mays); experiment: as above; settings: 10 days, 0 = no effect, 100 = complete control
How it was run: as §1

[12] = test system: palmer (palmer amaranth, palmer pigweed, Amaranthus palmeri); experiment: Test A postemergence application, visual injury rating 0-100; settings: 10 days
How it was run: as §1

[13] = test system: soybean (Glycine max); experiment: as above; settings: 10 days
How it was run: as §1

[14] = test system: ryegrass, Italian (italian ryegrass, Lolium multiflorum); experiment: as above; settings: 10 days
How it was run: as §1

[15] = test system: kochia (Bassia scoparia); experiment: as above; settings: 10 days
How it was run: as §1

[16] = test system: blackgrass (Alopecurus myosuroides); experiment: as above; settings: 10 days
How it was run: as §1

[17] = test system: galium (catchweed bedstraw, Galium aparine); experiment: as above; settings: 10 days
How it was run: as §1

[18] = test system: barnyardgrass (Echinochloa crus-galli); experiment: as above; settings: 10 days
How it was run: as §1

[19] = test system: green foxtail (Setaria viridis); experiment: as above; settings: 10 days
How it was run: as §1

[20] = test system: wheat (Triticum aestivum); experiment: as above; settings: 10 days
How it was run: as §1

[21] = test system: ragweed (common ragweed, Ambrosia artemisiifolia); experiment: as above; settings: 10 days
How it was run: as §1

[22] = test system: oat, wild (wild oat, Avena fatua); experiment: as above; settings: 10 days
How it was run: as §1

[23] = test system: corn (Zea mays); experiment: as above; settings: 10 days
How it was run: as §1

[24] = test system: horseweed (Erigeron canadensis); experiment: as above; settings: 10 days
How it was run: as §1

[25] = test system: ducksalad (Heteranthera limosa); experiment: Test B flooded paddy test, visual plant response rating 0-100; settings: 250 g ai/ha, Flood, applied to paddy water, evaluated after 13 days
How it was run: (§2)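 Visual evaluation after 13 days. Water-applied treatment, 3 cm flood depth held constant, plants at 2-leaf stage at treatment.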

[26] = test system: sedge, umbrella (small-flower umbrella sedge, Cyperus difformis); experiment: as above; settings: 250 g ai/ha, Flood, applied to paddy water, evaluated after 13 days
How it was run: as §2

[27] = test system: rice (Oryza sativa); experiment: as above; settings: 250 g ai/ha, Flood, applied to paddy water, evaluated after 13 days
How it was run: as §2

[28] = test system: barnyardgrass (Echinochloa crusgalli); experiment: as above; settings: 250 g ai/ha, Flood, applied to paddy water, evaluated after 13 days
How it was run: as §2

[29] = 31 g ai/ha, postemergence, 0 = no effect, 100 = complete control
[30] = Postemergence, 125 g ai/ha, 0 is no effect, 100 is complete control

CC1(C(=O)NC2C=CC(C(=O)OCC(F)(F)F)C2)CN(c2cc(F)cc(F)c2)C(=O)O1 (stereo not shown) [Compound 55]
45: Plant response rating, Sedge, Umbrella (0 to 100 scale, 0 is no effect and 100 is complete control) [26]
90: Ryegrass, Italian plant response rating (0 to 100 scale) ([3]; 125 g ai/ha) | Kochia plant response rating (0 to 100 scale) ([4]; 125 g ai/ha) | Blackgrass plant response rating (0 to 100 scale) ([5]; 125 g ai/ha) | Foxtail, Green plant response rating (0 to 100 scale) ([7]; 125 g ai/ha) | Wheat plant response rating (0-100) ([8]; 31 g ai/ha) | Oat, Wild plant response rating (0 to 100 scale) ([10]; 125 g ai/ha) | Amaranth, Palmer / Pigweed, Palmer plant response rating (0 to 100 scale) [12, 30] | Ryegrass, Italian plant response rating (0-100) [14, 29] | Ryegrass, Italian plant response rating (0 to 100 scale) [14, 30] | Barnyardgrass plant response rating (0-100) [18, 29] | Wheat plant response rating (0 to 100 scale) [20, 30] | Oat, Wild plant response rating (0-100) [22, 29] | Oat, Wild plant response rating (0 to 100 scale) [22, 30] | Plant response rating, Barnyardgrass (0 to 100 scale, 0 is no effect and 100 is complete control) [28]
50: Blackgrass plant response rating (0-100) [16, 29] | Ragweed plant response rating (0-100) [21, 29]
70: Amaranth, Palmer plant response rating (0 to 100 scale) ([1]; 125 g ai/ha) | Soybean plant response rating (0-100) [13, 29] | Soybean plant response rating (0 to 100 scale) [13, 30] | Horseweed plant response rating (0-100) [24, 29]
85: Plant response rating, Ducksalad (0 to 100 scale, 0 is no effect and 100 is complete control) [25]
40: Soybean plant response rating (0-100) ([2]; 31 g ai/ha) | Corn plant response rating (0 to 100 scale) ([11]; 125 g ai/ha)
0: Kochia plant response rating (0-100) ([4]; 31 g ai/ha) | Foxtail, Green plant response rating (0-100) ([7]; 31 g ai/ha) | Ragweed plant response rating (0-100) ([9]; 31 g ai/ha) | Ragweed plant response rating (0 to 100 scale) ([9]; 125 g ai/ha)
80: Soybean plant response rating (0 to 100 scale) ([2]; 125 g ai/ha) | Ryegrass, Italian plant response rating (0-100) ([3]; 31 g ai/ha) | Amaranth, Palmer plant response rating (0-100) [12, 29] | Kochia plant response rating (0-100) [15, 29] | Kochia plant response rating (0 to 100 scale) [15, 30] | Galium plant response rating (0-100) [17, 29] | Galium plant response rating (0 to 100 scale) [17, 30] | Foxtail, Green plant response rating (0 to 100 scale) [19, 30] | Wheat plant response rating (0-100) [20, 29] | Horseweed plant response rating (0 to 100 scale) [24, 30]
60: Oat, Wild plant response rating (0-100) ([10]; 31 g ai/ha) | Ragweed plant response rating (0 to 100 scale) [21, 30]
20: Amaranth, Palmer plant response rating (0-100) ([1]; 31 g ai/ha) | Blackgrass plant response rating (0-100) ([5]; 31 g ai/ha) | Barnyardgrass plant response rating (0-100) ([6]; 31 g ai/ha) | Corn plant response rating (0-100) ([11]; 31 g ai/ha) | Foxtail, Green plant response rating (0-100) [19, 29]
15: Plant response rating, Rice (0 to 100 scale, 0 is no effect and 100 is complete control) [27]
100: Barnyardgrass plant response rating (0 to 100 scale) ([6]; 125 g ai/ha) | Wheat plant response rating (0 to 100 scale) ([8]; 125 g ai/ha) | Blackgrass plant response rating (0 to 100 scale) [16, 30] | Barnyardgrass plant response rating (0 to 100 scale) [18, 30] | Corn plant response rating (0-100) [23, 29] | Corn plant response rating (0 to 100 scale) [23, 30]
